Reference: US20240240189A1, “CANCER TREATMENT BY TARGETING PROTEINS OR INTERACTIONS OF EPHRINB-RGS3-KIF20A-SEPT7 AXIS” (CITY OF HOPE, priority 2021, published 2024)
“Also recorded” adds a separate entry of the source.

Columns and labels:
GISC017 cells [1] = assay: Cell cycle exit analysis (EdU/Ki67) in GISC017 cells; format: cell-based, human; settings: shRNA expression vs scrambled shRNA
Excerpt: (§1) To further investigate the relevance of KIF20A in human brain tumors, inhibition of KIF20A in patient-derived GBM-initiating/stem cells (GISCs) was examined. As the ERKS axis functions in different types of brain tumor-initiating/stem cells, data obtained from study of GISCs would be applicable to other brain tumor cell types. Multiple lines of patient-derived GISCs were obtained from Dr. Christine Brown. These low passaged GISCs could be expanded in cultures and could engraft in NSG mice^43, 44. FIG. 11 summarizes the results of testing KIF20A in one GISC line (GISC017) by constitutive expression of a control scrambled shRNA or shKIF20A726 (shRNA targeting hKIF20A) in pNUT vector-based lentiviral expression system. […] In the above cell cycle exit analysis, co-staining of differentiation markers (e.g. βlll-tubulin, DCX, or NeuN) was performed, however, these markers were detected in EdU^+Ki67^− (cells having left the cell cycle) but also in some EdU^+Ki67^+ (cells staying in the cell cycle) cells, which might reflect a technical artefact observed with progenitor/stem cells in culture. […]

human KIF20A transcript = assay: shRNA screening by dual luciferase reporter assay; format: cell-based; settings: transfected HEK293 cells, shRNA in pNUT vector, cDNA target in psi-CHECK, 48 hours
Experimental: FIGS. 10a-10c show generation of human KIF20A shRNAs and stable Daoy cell lines. […] Candidate shRNAs in pNUT vector were first screened with a cDNA target cloned in psi-CHECK vector in transfected HEK293 cells, using a dual luciferase reporter assay and their cDNA target in psi-CHECK Vector (Promega). Six candidate shKIF20As were tested with this assay. […] Data are mean±S.D. **P<0.01, ***P<0.001 (two-way ANOVA).
DNA Constructs, Lentivirus Production: Lentiviral transfer plasmids used in this study include: Hiv7CMV-Cre-myc-2A-GFP (Addgene #117148), Hiv7CMV-GFP, Hiv7CMV-GFP-IRES-Luciferase, as well as Tet-on inducible shRNA plasmids Tet-pLKO-hushKIF20A726 or Tet-pLKO-hushKIF20A181-Puro (shRNA sequences were cloned into pLKO-Tet-On plasmid, Addgene #21915 at Agel/EcoRI sites). […]
shRNA design and screening: Potential shRNA sequences were selected using web-based design tool (rnaidesigner.thermofisher.com/rnaiexpress/design.do). shRNAs were expressed under the control of a mouse U6 promoter in pNUTs vector which additionally contains a ubiquitin promoter-EGFP expression cassette. Candidate shRNAs in pNUTs and cDNA target in psi-CHECK were co-transfected into HEK293 cells in triplicates; 48 hours later, the firefly and Renilla Luciferase values were determined with Promega's Dual-Luciferase® Reporter Assay System (Promega, E1910). […]

Daoy cells = assay: Intracranial Daoy tumor transplantation in NSG mice, bioluminescence imaging and survival; format: in vivo, mouse; settings: Daoy Clone #2 in cerebellum of NSG mice
Excerpt: Expression of the two factors was highly correlated. […] Tumor growths were monitored by bioluminescence imaging. Doxycycline treatment started at four weeks after initial cell implantation (indicated with a red font and line). The treatment group of mice was first given doxycycline by gavage for two consecutive days and was then fed with doxycycline-containing food for the entire duration of the experiment.
Intracranial tumor transplantation and Bioluminescence imaging: NSG mice (8-10 weeks old) were anesthetized with isoflurane and oxygen and placed under microscope. […] The transplanted mice were then monitored weekly with luciferase-based bioluminescence imaging for tumor growth. […] Tumor growths in two mice groups were monitored weekly by bioluminescence imaging. Survivals of mice after cell transplantation were recorded and analyzed.
To examine the function of KIF20A in tumor formation by Daoy cells, 10^5 Clone #2 cells were injected into the cerebellum of each recipient NSG mouse using a method previously described^22. Growth of tumor cells was then monitored by bioluminescence imaging. […] The mice were then kept on doxycycline-containing food continuously and were monitored for tumor growth by bioluminescence imaging.

KIF20A = KIF20A knockdown in GISC017 cells by lentiviral shRNA; format: cell-based, human; settings: constitutive lentiviral expression, vs scrambled shRNA
Excerpt: as §1

GISC017 cells [2] = assay: Cell growth of GISC017 cells; format: cell-based, human; settings: vs scrambled shRNA
Excerpt: as §1

GISC017 cells [3] = assay: Flow cytometry-based cell cycle analysis (4N DNA content) of GISC017 cells; set-up: species or system human; settings: vs scrambled shRNA
Excerpt: as §1

## 5′-GAGGAGTGTCTACATCGAA-TTCAAGAGA-TTCGATGTAGACACTCCTC-3′ (GAGGAGTGTCTACATCGAATTCAAGAGATTCGATGTAGACACTCCTC; hairpin, further chemistry not given here) [shKIF20A726, shRNA targeting human KIF20A transcript]
GISC017 cells [1]
  cell cycle exit (EdU+Ki67− cells): more cells exiting the cell cycle; also recorded: increase of GFP+EdU+Ki67− cells
Human KIF20A transcript
  inhibition of expression of the human KIF20A transcript (luciferase assay): significantly inhibit expression of the human KIF20A transcript
Daoy cells; doxycycline from four weeks after implantation vs untreated
  brain tumor growth (bioluminescence imaging): significantly slower growth of brain tumors; also recorded: inhibited tumor growth
Daoy cells; doxycycline treatment vs untreated
  survival (Kaplan-Meier): better overall survival
KIF20A
  KIF20A level: strongly knocked down KIF20A level; also recorded: significant knockdown of KIF20A expression
GISC017 cells [2]
  cell growth rate: slower cell growth rate; also recorded: inhibited cell growth
GISC017 cells [3]
  4N DNA contents / cytokinesis: comparable; also recorded: did not cause obvious change in cytokinesis
